Structures are written as SMILES. Read-outs that look alike come from different tables or passages of the source.

The target in one test is T1, human CA-II (Homo sapiens, UniProt P00918).
T1 construct: purchased Sigma-Aldrich C6165
Kind of test: Carbonic Anhydrase-II (CA-II) Fluorimetric Assay-IC50 Determination. It is filed as biochemical. The conditions noted are these: for IC50: Kd ND, read-out: CA-II IC50. The method, boiled down:
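Enzyme activity is read fluorimetrically at 25° C (ex 488 nm / em 538 nm) as the rate at which human CA-II hydrolyses fluorescein diacetate. The buffer is Tris/HCl (50 mM, pH 7.6) with 100 mM Na2SO4 and 0.005% Tween-20. Inhibitors run in duplicate over 11 threefold dilutions, […]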

Another test deals with T2, human CA-IV (Homo sapiens, UniProt P22748).
T2 construct: made in house; host or cells: Escherichia coli BL21(DE3)
Put plainly: Carbonic Anhydrase-IV (CA-IV) Fluorescence Polarization Assay-IC50 Determination. It is filed as binding. The conditions noted are these: for inhibition at 0.2 µM: CA-IV Min dose 200 nM, read-out: CA-IV: % Inh @ Min dose. As to the method: Carbonic Anhydrase-IV (CA-IV) Fluorescence Polarization Assay-IC50 Determination
These cells were grown in Luria broth (LB) media (Biomyx) supplemented with 800 uM ZnCl2 at 37° C. until an O.D.600 of 0.7, at which point the cells were induced with 100 uM isopropyl-beta-D-thiogalactopyranoside (IPTG) for 20 hours at 20° C. The frozen pellet was resuspended in 50mM 2-morpholinoethanesulfonic acid (MES) at pH 6.0, 100 mM NaCl, 800 uM ZnCl2 and EDTA-Free protease inhibitors (Roche). The cells were lysed with a microfluidizer, the lysate was spun at 40,000 rpm for 45 minutes at 4° C., and the soluble fraction was dialyzed overnight at 4° C. in 50 mM MES pH 6.0, and 100 mM NaCl. The soluble fraction was then put over a 100 ml SP-Sepharose High Performance (GE Healthcare) column and eluted with a 50 mM MES pH 6.0, 750 mM NaCl gradient. The peak fractions were then concentrated, via an Amicon Ultra-4 10,000 MWCO (Millipore) spin column to 2.0 mL and loaded onto a Sephacryl S-100 High Resolution (GE Healthcare) column in 25 mM tris(hydroxymethyl)aminomethane hydrochloride (Tris-HCl) pH 7.0, and 100 mM NaCl. The peak fractions were then concentrated, via an Amicon Ultra-4 10,000 MWCO (Millipore) spin column, to 7.0 mg/mL and left exposed at room temperature overnight. […] T.; et al. Carbonic Anhydrase Inhibitors. Med. Res. Rev. […]
Assays were conducted in a final volume of 100 μL in 50 mM Tris/HCl (pH 7.6), 100 mM Na2SO4 and 0.005% Tween-20 in a 96-well black assay plate.
(Polarisation of emitted light reports the rotation of a fluorescent probe.)

The mark [1] stands for this setting: CA II Min dose 100 nM, read-out: CAII % Inh @ Min dose.

T2 sequence (P22748 19-284 limits assumed): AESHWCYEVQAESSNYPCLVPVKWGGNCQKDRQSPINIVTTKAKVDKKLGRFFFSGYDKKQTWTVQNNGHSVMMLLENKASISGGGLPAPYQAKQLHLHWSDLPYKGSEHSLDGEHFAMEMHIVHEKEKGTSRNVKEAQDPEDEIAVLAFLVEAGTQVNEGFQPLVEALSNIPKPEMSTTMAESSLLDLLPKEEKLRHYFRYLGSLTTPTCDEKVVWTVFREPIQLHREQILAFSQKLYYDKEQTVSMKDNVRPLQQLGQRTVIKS

On to `NS(=O)(=O)c1ccc(-n2nc(C(=O)N3CCc4ccccc4CC3)nc2Cc2ccccc2)cc1` [Example R-4, 4-[5-benzyl-3-(1245-tetrahydro-3H-3-benzoazepin-3-ylcarbonyl)-1H-124-triazol-1-yl]benzenesulfonamide], for which, on human CA-II (setting [1]), the inhibition at 0.1 µM came to 100%. Besides, the IC50 on human CA-II was 3.4 nM; on human CA-IV (read-out: CA-IV IC50), 115 nM. In addition, the inhibition at 0.2 µM on human CA-IV stood at 74.3%. As for `CCCCCN(CCO)C(=O)c1nc(Cc2ccccc2)n(-c2ccc(S(N)(=O)=O)cc2)n1` [Example R-16, 1-[4-(aminosulfonyl)phenyl]-5-benzyl-N-(2-hydroxyethyl)-N-pentyl-1H-124-triazole-3-carboxamide], the inhibition at 0.1 µM on human CA-II (setting [1]) and on human CA-II (read-out: CA-II % at 100 nM) was 100% throughout. Further, the inhibition at 0.2 µM on human CA-IV was found to be 61.3%. Further, the IC50 at human CA-IV (read-out: CA-IV IC50) turned out to be 220 nM. `CCCN(CC1CC1)C(=O)c1nc(Cc2ccccc2)n(-c2ccc(S(N)(=O)=O)cc2)n1` [Example R-5, 1-[4-(aminosulfonyl)phenyl]-5-benzyl-N-(cyclopropylmethyl)-N-propyl-1H-124-triazole-3-carboxamide]: the inhibition at 0.1 µM at human CA-II (setting [1]) came to 100%. Besides, the IC50 turned out to be 2.18 nM on human CA-II and 167 nM on human CA-IV (read-out: CA-IV IC50). The inhibition at 0.2 µM at human CA-IV is 66.4%. Turning to `CN(CCC#N)C(=O)c1nc(Cc2ccccc2)n(-c2ccc(S(N)(=O)=O)cc2)n1` [Example R-10], the inhibition at 0.1 µM on human CA-II (setting [1]) and at human CA-II (read-out: CA-II % at 100 nM) was 99% throughout. For the same compound, the inhibition at 0.2 µM on human CA-IV amounted to 58%. In addition, the IC50 at human CA-IV (read-out: CA-IV IC50) was found to be 202 nM.

Consider `CC(=O)N1CCCN(C(=O)c2nc(Cc3ccccc3)n(-c3ccc(S(N)(=O)=O)cc3)n2)CC1` [Example R-18, 4-(3-[(4-acetyl-14-diazepan-1-yl)carbonyl]-5-benzyl-1H-124-triazol-1-yl)benzenesulfonamide], for which the inhibition at 0.1 µM on human CA-II (setting [1]) came out at 96%; at human CA-II (read-out: CA-II % at 100 nM), 98%. Further, the inhibition at 0.2 µM at human CA-IV turned out to be 56.9%. At human CA-IV (read-out: CA-IV IC50), the IC50 amounted to 274 nM.

On to `CCN(CCCCO)C(=O)c1nc(Cc2ccccc2)n(-c2ccc(S(N)(=O)=O)cc2)n1` [Example R-19, 1-[4-(aminosulfonyl)phenyl)-5-benzyl-N-ethyl-N-(4-hydroxybutyl)-1H-124-triazole-3-carboxamide], for which the inhibition at 0.1 µM at human CA-II (setting [1]) was found to be 99%. Also, the IC50 was found to be 3.55 nM on human CA-II and 306 nM at human CA-IV (read-out: CA-IV IC50). For the same compound, the inhibition at 0.2 µM on human CA-IV was 50.2%.

With `NS(=O)(=O)c1ccc(-n2nc(C(=O)N3CCCCC3)nc2Cc2ccccc2)cc1` [Example R-24, 4-[5-benzyl-3-(piperidin-1-ylcarbonyl)-1H-124-triazol-1-yl]benzenesulfonamide], the inhibition at 0.1 µM at human CA-II (setting [1]) came to 99%. Besides, the IC50 was 3.73 nM at human CA-II and 360 nM at human CA-IV (read-out: CA-IV IC50). For the same compound, the inhibition at 0.2 µM on human CA-IV came out at 48.6%. Turning to `CCNC(=O)c1cc(C)n(-c2ccc(S(N)(=O)=O)cc2C(=O)NCc2ccncc2)n1` [KK-1o, 1-[4-(aminosulfonyl)-2-{[(pyridin-4-ylmethyl)amino]carbonyl}phenyl]-N-ethyl-5-methyl-1H-pyrazole-3-carboxamide], the IC50 on human CA-IV (read-out: IC50_CAIV) amounted to 4530 nM. Still for that read-out and setting: then `NS(=O)(=O)c1ccc(-n2nc(CO)cc2Cc2ccccc2)cc1` [qq-3b, 4-[5-benzyl-3-(hydroxymethyl)-1H-pyrazol-1-yl]benzenesulfonamide], with 436 nM; and `NS(=O)(=O)c1ccc(-n2nc(CN3CCOCC3)cc2Cc2ccc(Cl)cc2)cc1` [QQ-1a, 4-[5-(4-chlorobenzyl)-3-(morpholin-4-ylmethyl)-1H-pyrazol-1-yl]benzenesulfonamide], with 563 nM. The same measure, in the same setting: the result for `NS(=O)(=O)c1ccc(-n2nc(CNCC3CCCCC3)cc2Cc2ccc(Cl)cc2)cc1` [QQ-1b, 4-[5-(4-chlorobenzyl)-3-{[(cyclohexylmethyl)amino]methyl}-1H-pyrazol-1-yl]benzenesulfonamide] reads 281 nM; that for `CN(Cc1cc(Cc2ccccc2)n(-c2ccc(S(N)(=O)=O)cc2F)n1)C1CCCCC1` [Example -1h, 4-(5-benzyl-3-{[cyclohexyl(methyl)amino]methyl}-1H-pyrazol-1-yl)-3-fluorobenzenesulfonamide], 186 nM; that for `CCCCN(C)Cc1cc(Cc2ccccc2)n(-c2ccc(S(N)(=O)=O)cc2F)n1` [QQ-1j, 4-(5-benzyl-3-{[butyl(methyl)amino]methyl}-1H-pyrazol-1-yl)-3-fluorobenzenesulfonamide], 278 nM. For the compound `Cc1cccc(Cc2cc(CN3CCCC(C#N)C3)nn2-c2ccc(S(N)(=O)=O)cc2F)c1` (stereo not shown) [PP-1a, 4-[3-[(3-cyanopiperidin-1-yl)methyl]-5-(3-methylbenzyl)-1H-pyrazol-1-yl]-3-fluorobenzenesulfonamide], the IC50 on human CA-IV (read-out: IC50_CAIV) was 168 nM.

Consider `NS(=O)(=O)c1ccc(-n2nc(CN3CC=CCC3)cc2Cc2ccccc2)c(F)c1` [QQ-1g, 4-[5-benzyl-3-(3,6-dihydropyridin-1(2H)-ylmethyl)-1H-pyrazol-1-yl]-3-fluorobenzenesulfonamide], for which the IC50 at human CA-IV (read-out: IC50_CAIV) was found to be 354 nM. Still for that read-out and setting: the result for `NS(=O)(=O)c1ccc(-n2nc(C(=O)O)cc2Cc2ccccc2)cc1` [pp-2a, 1-[4-(aminosulfonyl)phenyl]-5-benzyl-1H-pyrazole-3-carboxylic acid] reads 492 nM; that for `COCCN(C)Cc1cc(Cc2cccc(C)c2)n(-c2ccc(S(N)(=O)=O)cc2F)n1` [PP-1b, 3-fluoro-4-[3-{[(2-methoxyethyl)(methyl)amino]methyl}-5-(3-methylbenzyl)-1H-pyrazol-1-yl]benzenesulfonamide], 145 nM; that for `Cc1cc(C(=O)O)nn1-c1ccc(S(N)(=O)=O)cc1` [mm-2a, 1-[4-(aminosulfonyl)phenyl]-5-methyl-1H-pyrazole-3-carboxylic acid], at least 5000 nM. For `CCCN(C)Cc1cc(Cc2ccccc2)n(-c2ccc(S(N)(=O)=O)cc2)n1` [QQ-1e, 4-(5-benzyl-3-{[methyl(propyl)amino]methyl}-1H-pyrazol-1-yl)benzenesulfonamide], the IC50 on human CA-IV (read-out: IC50_CAIV) turned out to be 379 nM. With `CCCCN(C)Cc1cc(Cc2ccc(Br)cc2)n(-c2ccc(S(N)(=O)=O)cc2F)n1` [QQ-1f], the IC50 on human CA-IV (read-out: IC50_CAIV) is 171 nM.

As for `CCNC(=O)c1cc(C)n(-c2ccc(S(N)(=O)=O)cc2C(=O)NCc2ccccc2)n1` [KK-1h, 1-{4-(aminosulfonyl)-2-[(benzylamino)carbonyl]phenyl}-N-ethyl-5-methyl-1H-pyrazole-3-carboxamide], the IC50 on human CA-IV (read-out: IC50_CAIV) was found to be 2190 nM. As for `Cc1cc(C(=O)N2CCOCC2)nn1-c1ccc(S(N)(=O)=O)cc1CNCc1ccccc1` [LL-1a, 3-[(benzylamino)methyl]-4-(5-methyl-3-(morpholin-4-ylcarbonyl)-1H-pyrazol-1-yl]benzenesulfonamide], on human CA-IV (read-out: IC50_CAIV), the IC50 is above 5000 nM. On the same count and under the same terms, the result for `NS(=O)(=O)c1ccc(-n2nc3c(c2CN2CCOCC2)CCCC3)cc1` [II-1c, 4-[3-(morpholin-4-ylmethyl)-4,5,6,7-tetrahydro-2H-indazol-2-yl]benzenesulfonamide] reads at least 5000 nM. Still for that read-out and setting: the result for `CN(Cc1cc(Cc2ccccc2)n(-c2ccc(S(N)(=O)=O)cc2)n1)C1CCCCC1` [QQ-1m, 4-(5-benzyl-3-{[cyclohexyl(methyl)amino]methyl}-1H-pyrazol-1-yl)benzenesulfonamide] reads 314 nM. Consider `NS(=O)(=O)c1ccc(-n2nc(C(F)(F)F)c3c2CCNC3)c(C(=O)NCc2ccccc2)c1` [KK-1p, 5-(aminosulfonyl)-N-benzyl-2-[3-(triflurormethyl)-4,5,6,7-tetrahydro-1H-pyrazolo[4,3-c]pyridin-1-yl]benzamide], for which the IC50 on human CA-IV (read-out: IC50_CAIV) is above 5000 nM.

`NS(=O)(=O)c1ccc(-n2nc(CN3CC=CCC3)cc2Cc2ccccc2)cc1` [QQ-1l, 4-[5-benzyl-3-(3,6-dihydropyridin-1(2H)-ylmethyl)-1H-pyrazol-1-yl]benzenesulfonamine]: the IC50 on human CA-IV (read-out: IC50_CAIV) was determined as 552 nM. Still for that read-out and setting: then `NS(=O)(=O)c1ccc(-n2nc(CN3CC=CCC3)cc2Cc2ccc(Br)cc2)c(F)c1` [QQ-1k, 4-[5-(4-bromobenzyl)-3-(3,6-dihydropyridin-1(2H)-ylmethyl)-1H-pyrazol-1-yl]-3-fluorobenzenesulfonamide], with 253 nM. On the same count and under the same terms, then `CCOC(=O)c1cc(C)n(-c2ccc(S(N)(=O)=O)cn2)n1` [mm-1, ethyl 1-[5-(aminosulfonyl)pyridin-2-yl]-5-methyl-1H-pyrazole-3-carboxylate], with 1050 nM.

For the origin of these results see patent US20100256357A1, “HETEROCYCLES USEFUL AS INHIBITORS OF CARBONIC ANHYDRASE” (Agouron Pharmaceuticals, Inc., priority 2006, published 2010).
